Measured values from the kinase profiling compilation of Christmann-Franck et al. (2016).

Key:
Test in all cases: radiometric filter-binding kinase assay
[1] = molecular target: TLK1 (human) (UniProt Q9UKI8)
[2] = molecular target: TTBK1 (human) (UniProt Q5TCY1)
[3] = molecular target: TSSK1B (human) (UniProt Q9BXA7)
[4] = system: OXSR1 (human), O95747 [T185E]
[5] = molecular target: ZAP70 (human) (UniProt P43403)
[6] = molecular target: PRKCG (human) (UniProt P05129)
[7] = molecular target: MARK3 (human) (UniProt P27448)
[8] = molecular target: TEK (human) (UniProt Q02763)
[9] = molecular target: CHEK2 (human) (UniProt O96017)
[10] = molecular target: EIF2AK3 (human) (UniProt Q9NZJ5)
[11] = molecular target: TESK1 (human) (UniProt Q15569)
[12] = molecular target: ABL1 (human) (UniProt P00519)
[13] = molecular target: STK33 (human) (UniProt Q9BYT3)
[14] = molecular target: PTK6 (human) (UniProt Q13882)
[15] = molecular target: STK16 (human) (UniProt O75716)
[16] = molecular target: IRAK1 (human) (UniProt P51617)
Sequence of IRAK1 (human) (P51617 whole entry, looked up): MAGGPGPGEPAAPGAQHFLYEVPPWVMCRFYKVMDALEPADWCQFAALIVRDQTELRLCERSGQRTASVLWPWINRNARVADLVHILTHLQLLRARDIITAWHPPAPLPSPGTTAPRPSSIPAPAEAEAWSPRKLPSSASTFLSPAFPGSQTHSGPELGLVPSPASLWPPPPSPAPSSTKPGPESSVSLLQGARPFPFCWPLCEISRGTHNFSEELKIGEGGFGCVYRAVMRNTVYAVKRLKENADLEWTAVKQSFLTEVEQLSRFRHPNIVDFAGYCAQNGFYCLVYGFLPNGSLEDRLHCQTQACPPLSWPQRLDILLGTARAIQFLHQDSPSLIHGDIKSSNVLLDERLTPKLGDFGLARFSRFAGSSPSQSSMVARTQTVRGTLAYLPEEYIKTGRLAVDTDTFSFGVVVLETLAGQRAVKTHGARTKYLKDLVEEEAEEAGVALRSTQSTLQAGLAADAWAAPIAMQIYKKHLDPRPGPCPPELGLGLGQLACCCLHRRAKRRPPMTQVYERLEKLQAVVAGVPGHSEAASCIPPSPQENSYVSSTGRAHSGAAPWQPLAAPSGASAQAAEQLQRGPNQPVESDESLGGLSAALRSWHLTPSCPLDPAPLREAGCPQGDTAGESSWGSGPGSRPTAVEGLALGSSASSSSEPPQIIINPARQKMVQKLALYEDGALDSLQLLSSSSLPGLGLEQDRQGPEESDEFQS

Sequence of STK33 (human) (Q9BYT3 whole entry, looked up): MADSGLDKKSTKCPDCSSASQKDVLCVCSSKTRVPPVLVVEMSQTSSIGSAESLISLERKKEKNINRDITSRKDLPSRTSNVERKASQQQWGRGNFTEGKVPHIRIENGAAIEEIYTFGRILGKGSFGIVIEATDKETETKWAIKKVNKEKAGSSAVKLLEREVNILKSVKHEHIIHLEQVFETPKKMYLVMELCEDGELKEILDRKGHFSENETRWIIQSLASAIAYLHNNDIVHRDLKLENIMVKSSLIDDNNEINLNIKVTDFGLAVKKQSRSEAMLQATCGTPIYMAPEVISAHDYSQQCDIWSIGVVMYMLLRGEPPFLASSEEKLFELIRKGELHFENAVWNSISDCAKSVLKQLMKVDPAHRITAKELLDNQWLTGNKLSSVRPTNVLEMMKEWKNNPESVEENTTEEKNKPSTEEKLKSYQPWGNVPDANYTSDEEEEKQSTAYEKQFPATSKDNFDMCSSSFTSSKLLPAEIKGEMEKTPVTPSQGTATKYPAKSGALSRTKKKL
Sequence of PTK6 (human) (Q13882 whole entry, looked up): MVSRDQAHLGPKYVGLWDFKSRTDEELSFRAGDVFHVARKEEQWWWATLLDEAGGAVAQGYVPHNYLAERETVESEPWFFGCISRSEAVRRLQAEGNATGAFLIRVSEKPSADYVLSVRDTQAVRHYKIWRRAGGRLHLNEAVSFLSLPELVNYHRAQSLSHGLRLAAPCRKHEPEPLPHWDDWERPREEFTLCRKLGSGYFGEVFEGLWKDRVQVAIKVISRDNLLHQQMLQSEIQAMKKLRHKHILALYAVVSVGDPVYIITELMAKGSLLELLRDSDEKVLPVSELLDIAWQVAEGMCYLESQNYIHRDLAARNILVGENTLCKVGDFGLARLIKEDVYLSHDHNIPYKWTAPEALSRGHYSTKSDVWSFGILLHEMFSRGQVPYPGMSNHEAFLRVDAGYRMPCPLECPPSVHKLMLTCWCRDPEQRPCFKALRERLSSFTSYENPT
Sequence of EIF2AK3 (human) (Q9NZJ5 whole entry, looked up): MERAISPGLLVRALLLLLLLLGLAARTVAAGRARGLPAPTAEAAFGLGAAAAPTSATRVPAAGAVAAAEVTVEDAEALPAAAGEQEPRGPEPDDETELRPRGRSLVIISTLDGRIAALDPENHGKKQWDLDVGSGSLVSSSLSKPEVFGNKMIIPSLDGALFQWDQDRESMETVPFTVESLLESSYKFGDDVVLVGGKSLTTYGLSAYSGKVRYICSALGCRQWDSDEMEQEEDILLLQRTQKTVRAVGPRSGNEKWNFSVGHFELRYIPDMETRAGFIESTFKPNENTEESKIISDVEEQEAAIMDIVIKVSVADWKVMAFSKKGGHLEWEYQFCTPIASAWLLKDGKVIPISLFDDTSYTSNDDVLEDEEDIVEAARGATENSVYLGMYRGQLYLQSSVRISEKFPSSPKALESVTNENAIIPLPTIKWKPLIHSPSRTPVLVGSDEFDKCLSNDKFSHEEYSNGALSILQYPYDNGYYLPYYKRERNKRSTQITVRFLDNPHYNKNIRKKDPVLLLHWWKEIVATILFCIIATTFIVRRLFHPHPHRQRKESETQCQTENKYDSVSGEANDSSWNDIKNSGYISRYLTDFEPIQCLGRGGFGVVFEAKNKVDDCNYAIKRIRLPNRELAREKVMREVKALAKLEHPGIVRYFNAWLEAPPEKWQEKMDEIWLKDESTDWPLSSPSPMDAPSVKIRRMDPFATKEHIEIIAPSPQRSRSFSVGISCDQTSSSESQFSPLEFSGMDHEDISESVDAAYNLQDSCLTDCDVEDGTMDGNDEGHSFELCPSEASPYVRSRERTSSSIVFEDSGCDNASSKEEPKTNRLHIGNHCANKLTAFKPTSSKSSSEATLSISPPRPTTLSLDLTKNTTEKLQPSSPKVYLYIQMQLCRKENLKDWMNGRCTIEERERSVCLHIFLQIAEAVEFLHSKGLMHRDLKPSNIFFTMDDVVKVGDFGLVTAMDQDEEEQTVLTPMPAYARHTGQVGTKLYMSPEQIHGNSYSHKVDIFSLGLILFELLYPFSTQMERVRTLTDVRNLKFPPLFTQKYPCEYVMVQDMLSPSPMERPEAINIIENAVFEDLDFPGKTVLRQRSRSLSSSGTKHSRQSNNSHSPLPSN
Sequence of MARK3 (human) (P27448 whole entry, looked up): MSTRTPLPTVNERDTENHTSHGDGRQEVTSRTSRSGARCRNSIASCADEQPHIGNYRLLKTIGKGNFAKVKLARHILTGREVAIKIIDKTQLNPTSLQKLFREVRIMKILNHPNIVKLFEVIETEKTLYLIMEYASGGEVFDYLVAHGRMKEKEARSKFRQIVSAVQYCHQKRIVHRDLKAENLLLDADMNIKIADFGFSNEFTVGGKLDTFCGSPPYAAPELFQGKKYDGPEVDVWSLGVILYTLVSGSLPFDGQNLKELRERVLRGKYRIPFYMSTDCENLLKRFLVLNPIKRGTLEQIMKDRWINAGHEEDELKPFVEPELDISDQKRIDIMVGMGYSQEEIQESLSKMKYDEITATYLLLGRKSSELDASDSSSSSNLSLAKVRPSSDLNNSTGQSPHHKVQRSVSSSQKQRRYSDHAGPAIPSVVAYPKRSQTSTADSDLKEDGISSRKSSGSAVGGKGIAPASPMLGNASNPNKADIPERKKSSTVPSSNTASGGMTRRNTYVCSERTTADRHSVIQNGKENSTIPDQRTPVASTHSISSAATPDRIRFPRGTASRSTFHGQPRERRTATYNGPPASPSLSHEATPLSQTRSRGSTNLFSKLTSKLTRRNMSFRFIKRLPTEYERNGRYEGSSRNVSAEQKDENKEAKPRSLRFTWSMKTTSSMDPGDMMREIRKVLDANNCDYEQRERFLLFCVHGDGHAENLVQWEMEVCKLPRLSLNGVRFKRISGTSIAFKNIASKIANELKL
Sequence of ZAP70 (human) (P43403 whole entry, looked up): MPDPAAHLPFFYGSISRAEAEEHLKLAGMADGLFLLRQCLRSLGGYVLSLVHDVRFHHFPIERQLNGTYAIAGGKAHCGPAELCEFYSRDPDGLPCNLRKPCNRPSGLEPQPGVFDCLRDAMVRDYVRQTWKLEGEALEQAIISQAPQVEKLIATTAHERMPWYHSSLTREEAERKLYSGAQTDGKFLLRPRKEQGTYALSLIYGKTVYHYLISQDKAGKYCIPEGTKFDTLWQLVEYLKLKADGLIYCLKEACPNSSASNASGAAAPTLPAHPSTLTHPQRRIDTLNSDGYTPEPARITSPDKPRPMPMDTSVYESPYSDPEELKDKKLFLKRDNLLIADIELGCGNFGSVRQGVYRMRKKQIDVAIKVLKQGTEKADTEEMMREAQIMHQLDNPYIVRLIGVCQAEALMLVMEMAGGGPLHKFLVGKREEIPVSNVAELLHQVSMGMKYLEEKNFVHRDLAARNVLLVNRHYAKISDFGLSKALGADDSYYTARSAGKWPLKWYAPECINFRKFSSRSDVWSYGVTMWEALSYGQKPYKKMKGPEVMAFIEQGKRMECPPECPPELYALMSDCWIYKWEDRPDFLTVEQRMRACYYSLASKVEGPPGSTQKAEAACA

In the case of Cc1ccc(=O)n(-c2ccccc2)c1, the residual activity ([1]; compound 1.0 µM) is reported as 113%, the residual activity ([1]; compound 10.0 µM) is reported as 115% and the residual activity ([2]; compound 1.0 µM) is reported as 124%. It also gave a residual activity ([2]; compound 10.0 µM) of 107%, a residual activity ([3]; compound 1.0 µM) of 87% and a residual activity ([3]; compound 10.0 µM) of 91%. It also gave a residual activity ([4]; compound 10.0 µM) of 115%, a residual activity ([5]; compound 1.0 µM) of 110% and a residual activity ([6]; compound 1.0 µM) of 99%. It also gave a residual activity ([6]; compound 10.0 µM) of 94%, a residual activity ([7]; compound 1.0 µM) of 108% and a residual activity ([7]; compound 10.0 µM) of 108%. The residual activity ([8]; compound 1.0 µM) was 110%, the residual activity ([8]; compound 10.0 µM) was 118% and the residual activity ([9]; compound 1.0 µM) was 119%. For the same compound, the residual activity ([9]; compound 10.0 µM) was 97%, the residual activity ([10]; compound 1.0 µM) was 106% and the residual activity ([10]; compound 10.0 µM) was 105%. The residual activity ([11]; compound 1.0 µM) was 94%, the residual activity ([11]; compound 10.0 µM) was 82% and the residual activity ([12]; compound 1.0 µM) was 106%. For the same compound, the residual activity ([12]; compound 10.0 µM) was 112%, the residual activity ([13]; compound 1.0 µM) was 82% and the residual activity ([13]; compound 10.0 µM) was 90%. The residual activity ([14]; compound 1.0 µM) was 101%, the residual activity ([14]; compound 10.0 µM) was 92% and the residual activity ([15]; compound 1.0 µM) was 87%. For the same compound, the residual activity ([15]; compound 10.0 µM) was 96% and the residual activity ([16]; compound 1.0 µM) was 105%.
O=C(NOCC(O)CO)c1ccc(F)c(F)c1Nc1ccc(I)cc1Cl (stereo not drawn) showed a residual activity ([1]; compound 1.0 µM) of 95%, a residual activity ([1]; compound 10.0 µM) of 100% and a residual activity ([4]; compound 10.0 µM) of 87%. It also gave a residual activity ([5]; compound 1.0 µM) of 77%, a residual activity ([5]; compound 10.0 µM) of 98% and a residual activity ([6]; compound 1.0 µM) of 110%. For the same compound, the residual activity ([6]; compound 10.0 µM) was 100%, the residual activity ([7]; compound 1.0 µM) was 73% and the residual activity ([7]; compound 10.0 µM) was 88%. It also gave a residual activity ([8]; compound 1.0 µM) of 106%, a residual activity ([8]; compound 10.0 µM) of 87% and a residual activity ([9]; compound 1.0 µM) of 104%. It also gave a residual activity ([9]; compound 10.0 µM) of 93%, a residual activity ([12]; compound 1.0 µM) of 101% and a residual activity ([12]; compound 10.0 µM) of 107%. The residual activity ([13]; compound 1.0 µM) was 92%, the residual activity ([13]; compound 10.0 µM) was 90% and the residual activity ([14]; compound 1.0 µM) was 126%. It also gave a residual activity ([14]; compound 10.0 µM) of 110%, a residual activity ([15]; compound 1.0 µM) of 87% and a residual activity ([15]; compound 10.0 µM) of 86%. It also gave a residual activity ([16]; compound 1.0 µM) of 81% and a residual activity ([16]; compound 10.0 µM) of 79%.
For O=C(NCCCNc1nc(Nc2cccc(CN3CCOCC3)c2)ncc1C1CC1)C1CCC1, the residual activity ([1]; compound 0.1 µM) was 90%, the residual activity ([1]; compound 1.0 µM) was 108% and the residual activity ([4]; compound 0.1 µM) was 83%. The residual activity ([4]; compound 1.0 µM) was 94%, the residual activity ([5]; compound 0.1 µM) was 92% and the residual activity ([5]; compound 1.0 µM) was 94%. It also gave a residual activity ([6]; compound 0.1 µM) of 88%, a residual activity ([6]; compound 1.0 µM) of 98% and a residual activity ([7]; compound 0.1 µM) of 15%. The residual activity ([7]; compound 1.0 µM) was 1%, the residual activity ([8]; compound 0.1 µM) was 95% and the residual activity ([8]; compound 1.0 µM) was 81%. It also gave a residual activity ([9]; compound 0.1 µM) of 105%, a residual activity ([9]; compound 1.0 µM) of 72% and a residual activity ([10]; compound 0.1 µM) of 92%. For the same compound, the residual activity ([10]; compound 1.0 µM) was 86%, the residual activity ([13]; compound 0.1 µM) was 80% and the residual activity ([13]; compound 1.0 µM) was 52%. The residual activity ([14]; compound 0.1 µM) was 96%, the residual activity ([14]; compound 1.0 µM) was 110% and the residual activity ([15]; compound 1.0 µM) was 104%. It also gave a residual activity ([16]; compound 0.1 µM) of 96% and a residual activity ([16]; compound 1.0 µM) of 79%.
In the case of CC(C)(C#N)c1ccc(N2C(=O)OCc3cnc4ccc(-c5cnc6ccccc6c5)cc4c32)cc1, the residual activity ([1]; compound 1.0 µM) is reported as 84%, the residual activity ([1]; compound 10.0 µM) is reported as 101% and the residual activity ([2]; compound 1.0 µM) is reported as 110%. The residual activity ([2]; compound 10.0 µM) was 100%, the residual activity ([3]; compound 10.0 µM) was 103% and the residual activity ([4]; compound 1.0 µM) was 102%. For the same compound, the residual activity ([4]; compound 10.0 µM) was 103%, the residual activity ([5]; compound 1.0 µM) was 75% and the residual activity ([5]; compound 10.0 µM) was 77%. For the same compound, the residual activity ([6]; compound 1.0 µM) was 111%, the residual activity ([6]; compound 10.0 µM) was 99% and the residual activity ([7]; compound 1.0 µM) was 93%. It also gave a residual activity ([7]; compound 10.0 µM) of 102%, a residual activity ([8]; compound 1.0 µM) of 93% and a residual activity ([8]; compound 10.0 µM) of 95%. For the same compound, the residual activity ([9]; compound 1.0 µM) was 95%, the residual activity ([9]; compound 10.0 µM) was 94% and the residual activity ([10]; compound 1.0 µM) was 101%. For the same compound, the residual activity ([10]; compound 10.0 µM) was 97%, the residual activity ([11]; compound 1.0 µM) was 116% and the residual activity ([11]; compound 10.0 µM) was 108%. The residual activity ([12]; compound 1.0 µM) was 93%, the residual activity ([12]; compound 10.0 µM) was 103% and the residual activity ([13]; compound 10.0 µM) was 98%. The residual activity ([14]; compound 1.0 µM) was 96%, the residual activity ([14]; compound 10.0 µM) was 97% and the residual activity ([15]; compound 1.0 µM) was 87%. The residual activity ([15]; compound 10.0 µM) was 100%, the residual activity ([16]; compound 1.0 µM) was 79% and the residual activity ([16]; compound 10.0 µM) was 56%.
In the case of O=C(Nc1nc2cc(C(F)(F)F)cc(NC3CC3)n2n1)c1cccnc1, the residual activity ([1]; compound 0.01 µM) is reported as 107%, the residual activity ([1]; compound 0.1 µM) is reported as 99% and the residual activity ([1]; compound 1.0 µM) is reported as 90%. It also gave a residual activity ([4]; compound 0.01 µM) of 83%, a residual activity ([4]; compound 0.1 µM) of 114% and a residual activity ([4]; compound 1.0 µM) of 92%. The residual activity ([5]; compound 0.01 µM) was 76%, the residual activity ([5]; compound 0.1 µM) was 77% and the residual activity ([5]; compound 1.0 µM) was 84%. For the same compound, the residual activity ([6]; compound 0.01 µM) was 101%, the residual activity ([6]; compound 0.1 µM) was 115% and the residual activity ([6]; compound 1.0 µM) was 106%. For the same compound, the residual activity ([7]; compound 0.01 µM) was 83%, the residual activity ([7]; compound 0.1 µM) was 87% and the residual activity ([7]; compound 1.0 µM) was 86%. For the same compound, the residual activity ([8]; compound 0.01 µM) was 94%, the residual activity ([8]; compound 0.1 µM) was 103% and the residual activity ([8]; compound 1.0 µM) was 69%. The residual activity ([9]; compound 0.01 µM) was 93%, the residual activity ([9]; compound 0.1 µM) was 114% and the residual activity ([9]; compound 1.0 µM) was 89%. It also gave a residual activity ([10]; compound 0.01 µM) of 109%, a residual activity ([10]; compound 0.1 µM) of 117% and a residual activity ([10]; compound 1.0 µM) of 104%. The residual activity ([12]; compound 0.01 µM) was 95%, the residual activity ([12]; compound 1.0 µM) was 97% and the residual activity ([13]; compound 0.01 µM) was 97%. It also gave a residual activity ([13]; compound 0.1 µM) of 106%, a residual activity ([13]; compound 1.0 µM) of 88% and a residual activity ([14]; compound 0.01 µM) of 114%. For the same compound, the residual activity ([14]; compound 0.1 µM) was 130%, the residual activity ([14]; compound 1.0 µM) was 124% and the residual activity ([15]; compound 0.01 µM) was 82%. It also gave a residual activity ([15]; compound 0.1 µM) of 96%, a residual activity ([15]; compound 1.0 µM) of 83% and a residual activity ([16]; compound 0.01 µM) of 94%. For the same compound, the residual activity ([16]; compound 0.1 µM) was 100% and the residual activity ([16]; compound 1.0 µM) was 89%.
